Source: patent US9745274B2, “Compound, organic cation transporter 3 detection agent, and organic cation transporter 3 activity inhibitor” (SHIN NIPPON BIOMEDICAL LABORATORIES, LTD., priority 2013, dated 2017)
pIC50: −log10 of the molar value.

What was measured:
[1] = target: T1, human organic cation transporter 3 (hOCT3) (Homo sapiens, UniProt O75751); assay: Histamine incorporation experiment in HEK293 cells expressing hOCT3 (OCT3 inhibition activity); type: cell-based; settings: for OCT3 Inhibition Rate (%): Tables 3-1 to 3-15, in a manner similar to Example 12 (30 μM there), concentration not given in the tables; for remaining activity at 10 µM / remaining activity at 30 µM: HEK293, 1 min, no inhibitor = 100%, read-out: Histamine Incorporation Rate to Control (%); for remaining activity at 10 µM / inhibition at 10 µM: Compound Concentration 10 μM; for remaining activity at 30 µM / inhibition at 30 µM: Compound Concentration 30 μM; for remaining activity at 30 µM: [3H]histamine 100 nM, 1 minute; for inhibition at 10 µM / inhibition at 30 µM: HEK293, 100% minus histamine incorporation rate
T1 construct: expressed in transfected cells; host or cells: HEK293
T1 sequence (O75751 1-556): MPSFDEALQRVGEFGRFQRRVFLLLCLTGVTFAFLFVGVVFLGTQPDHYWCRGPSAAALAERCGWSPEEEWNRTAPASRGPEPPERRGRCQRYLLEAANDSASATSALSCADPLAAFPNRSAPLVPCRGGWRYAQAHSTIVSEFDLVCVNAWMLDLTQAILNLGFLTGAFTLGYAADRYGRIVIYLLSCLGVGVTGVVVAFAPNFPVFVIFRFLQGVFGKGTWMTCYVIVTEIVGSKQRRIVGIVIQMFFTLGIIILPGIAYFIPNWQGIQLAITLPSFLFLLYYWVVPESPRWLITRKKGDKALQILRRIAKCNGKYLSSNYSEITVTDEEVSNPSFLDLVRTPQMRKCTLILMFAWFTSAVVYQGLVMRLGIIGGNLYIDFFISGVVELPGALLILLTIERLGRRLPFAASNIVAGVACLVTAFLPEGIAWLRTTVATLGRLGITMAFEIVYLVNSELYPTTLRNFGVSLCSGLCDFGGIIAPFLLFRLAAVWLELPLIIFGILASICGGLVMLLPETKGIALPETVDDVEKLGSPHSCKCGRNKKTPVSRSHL
Procedure: In order to measure an activity that inhibits OCT3 from incorporating a substrate (OCT3 inhibition activity) for each compound, histamine incorporation experiments as described below were performed.
Histamine incorporation experiments were performed in accordance with a method disclosed in Br J Pharmacol. 2002; 136(6): 829-836. In the experiments, HEK293 cells were used. The HEK293 cell is a human embryonal renal cell strain expressing human organic cation transporter 3 (hOCT3). The HEK 293 cells were inoculated onto 24-well plates at 1.5×10^5 cells/well, and were cultivated overnight in a carbon dioxide incubator. Test substances were dissolved in 100% DMSO solution and then dissolved in HBSS-HEPES solution (buffer solution prepared by dissolving 9.7 g Hank's Balanced Salt, 1.4% sodium bicarbonate 25 mL, and 1M HEPES 25 mL in 940 mL ultra pure water, and by adjusting to pH7.4 with 1M sodium hydroxide). After removing culture media for cell culture, pretreatment was performed for 5 minutes with 1 mL HBSS-HEPES solution. Then, the test substance and [3H]histamine (final concentration 100 nM) were added to the cells and reacted for 1 minute at room temperature. After the reaction was completed, the reaction was stopped by ice-cooled HBSS-HEPES solution, extracellular fluid was aspirated by an aspirator, and then the cells were washed twice with HBSS-HEPES. After washing, the cells were dissolved in 0.5M sodium hydroxide solution. The amount of histamine in the cells was found by measuring a radioactivity in a cell lysis solution by a liquid scintillation counter. Protein content in the cells was measured by Lowry method (J Biol Chem. 1951; 193(1): 265-75) by using the cell lysis solution, and translated into histamine incorporation amount per protein content for each experiment. A histamine incorporation rate (%) in the presence of 30 μM of the test substance was calculated by regarding a histamine incorporation amount in a case of no incorporation inhibitor as 100% (control) of histamine incorporation rate. A value (%) obtained by subtracting the histamine incorporation rate from 100(%) was calculated as an OCT3 inhibition rate (%).
Note that a histamine incorporation rate (%) in the presence of 10 μM of the test substance was calculated by regarding a histamine incorporation amount in a case of no incorporation inhibitor as 100% (control) of histamine incorporation rate. A value (%) obtained by subtracting the histamine incorporation rate from 100(%) was calculated as an OCT3 inhibition rate (%). […]

[2] = target: T1, human organic cation transporter 3 (hOCT3); assay: as above; type: cell-based; settings: control curve; for IC80: HEK293

| OCT3 Inhibition Rate (%) [1] | remaining activity at 10 µM [1] | remaining activity at 30 µM [1] | inhibition at 10 µM [1] | inhibition at 30 µM [1] | IC80 [2] | pIC50 [2] | Compound |
| --- | --- | --- | --- | --- | --- | --- | --- |
| 7.9% |  |  |  |  |  |  | CN/C(=C\[N+](=O)[O-])NCCSCc1csc(N=C(N)N)n1 [SR-2044] |
|  | 56.6% | 35.2% | 43.4% | 64.8% | 56 µM | 4.91 | NC(N)=Nc1nc(CSCCNC(=O)CO)cs1 [SR-2045] |
| 38.8% |  |  |  |  |  |  | NC(N)=Nc1nc(CSCCc2ncc(CCc3ccccc3)o2)cs1 [SR-2051] |
|  | 72.9% | 41.5% | 27.1% | 58.5% | 90 µM | 4.62 | NC(N)=Nc1nc(CCCC/C(N)=N/S(=O)(=O)C(F)(F)F)cs1 [SR-2065] |
|  |  | 58.1% |  | 41.9% |  |  | NC(N)=Nc1nc(CCCC/C(N)=N/S(N)(=O)=O)cs1 [SR-2066] |
| 28.5% |  |  |  |  |  |  | N=C(N)CCCCc1csc(N=C(N)N)n1 [SR-2068, 5-[2-(diaminomethyleneamino)thiazole-4-yl]pentaimideamide] |
|  |  | 48.6% |  | 51.4% |  |  | N#C/N=C(\N)NCCCCc1csc(N=C(N)N)n1 [SR-2069] |
| 27.0% |  |  |  |  |  |  | N=C(N)NCCCCc1csc(N=C(N)N)n1 [SR-2071] |
|  |  | 52.9% |  | 47.1% |  |  | NC(N)=Nc1nc(CCCCNC(=O)CO)cs1 [SR-2073] |
| 23.9% |  |  |  |  |  |  | CNC(=O)CCCCc1csc(N=C(N)N)n1 [SR-2075] |
|  | 14.8% | 11.8% | 85.2% | 88.2% | 8 µM | 5.72 | Cc1nc(CCCCc2csc(N=C(N)N)n2)[nH]c(=O)c1CCc1ccccc1 [SR-2076] |
| 16.3% |  |  |  |  |  |  | CNC(=O)CCSCc1csc(N=C(N)N)n1 [SR-2203] |
| 3.4% |  |  |  |  |  |  | CNCCCCc1csc(N=C(N)N)n1 [SR-2204] |
| 61.5% |  |  |  |  |  |  | NC(N)=Nc1nc(CSCCC(N)=NS(=O)(=O)C(F)(F)F)cs1 [SR-2216] |
| 30.4% |  |  |  |  |  |  | CC(=O)NC(=O)CCSCc1csc(N=C(N)N)n1 [SR-2225] |
| 21.8% |  |  |  |  |  |  | NC(N)=Nc1nc(CSCCC(=O)NC(=O)c2ccccc2)cs1 [SR-2226] |

Second part, the compound before the results:

| Compound | OCT3 Inhibition Rate (%) [1] | remaining activity at 10 µM [1] | remaining activity at 30 µM [1] | inhibition at 10 µM [1] | inhibition at 30 µM [1] | IC80 [2] | pIC50 [2] |
| --- | --- | --- | --- | --- | --- | --- | --- |
| CN(C)c1nc(CSCC/C(N)=N/S(=O)(=O)C(F)(F)F)cs1 [SR-2005] | −7.8% |  |  |  |  |  |  |
| Cc1nc(CCSCc2csc(N(C)C)n2)[nH]c(=O)c1CCc1ccccc1 [SR-2011] | 37.9% |  |  |  |  |  |  |
| NC(N)=Nc1cccc(CSCC/C(N)=N/S(=O)(=O)C(F)(F)F)c1 [SR-2020] | 25.4% |  |  |  |  |  |  |
| NC(N)=Nc1cccc(CSCC/C(N)=N/S(=O)(=O)C(F)(F)F)n1 [SR-2022] |  | 50% | 21% | 50% | 79% | 30 µM | 4.98 |
| NC(N)=Nc1cc(CSCC/C(N)=N/S(=O)(=O)C(F)(F)F)ccn1 [SR-2023] |  | 36.7% | 15% | 63.3% | 85% | 28 µM | 5.19 |
| Cc1nc(CCSCc2cccc(N=C(N)N)n2)[nH]c(=O)c1CCc1ccccc1 [SR-2036] |  | 33.7% | 15.4% | 66.3% | 84.6% | 27 µM | 5.23 |
| Cc1nc(CCCOc2cc(N=C(N)N)ccn2)[nH]c(=O)c1CCc1ccccc1 [SR-2064] | 17.5% |  |  |  |  |  |  |
| CC(C)c1nc(CSCCC(N)=NS(N)(=O)=O)cs1 [SR-2207, (Z)-3-((2-isopropylthiazol-4-yl)methylthio)-N′-sulfamoylpropanimidamide] | 6.7% |  |  |  |  |  |  |
| Cc1nc(CCSCc2csc(N=C3NCCN3)n2)[nH]c(=O)c1CCc1ccccc1 [SR-2213] | 45.8% |  |  |  |  |  |  |
| Cc1nc(CCSCc2ccnc(N=C(N)N)c2)[nH]c(=O)c1CCc1ccccc1 [SR-2219] |  | 51.5% | 22.6% | 48.5% | 77.4% | 49 µM | 4.72 |
